Reference: article PMC4992173, “Divergent synthesis and identification of the cellular targets of deoxyelephantopins” (Nature Communications, 2016)

How the values were obtained:
[1] = target: recombinant IKKβ (Homo sapiens, UniProt O14920); experiment: Labeling of recombinant IKK-β with probe 24c; type: binding; settings: 10 µM 24c
[2] = tested on: several human cancer cell lines; settings: cited from earlier work
[3] = tested on: tumour growth and metastasis; design: method as in PMID 20105176; settings: murine orthotopic breast cancer model, compared with paclitaxel; cited from earlier work
[4] = target: T1, Protein HGH1 homolog (HGH1) (Homo sapiens, UniProt Q9BTY7); experiment: SILAC competitive profiling with probe 24c in MCF7 lysates: HGH1; type: binding; settings: 1 h, then 10 µM 24c
T1 construct: 1,522 proteins were enriched from MCF7 cells by 10 μM probe 24c; endogenous in cells; host or cells: MCF7
From the text: In our efforts to determine the direct molecular targets of deoxyelephantopin we first performed a gel-based competitive in situ proteomic profiling assay[41] […] While the greater conformational flexibility of probe 24c could potentially lead to more promiscuous target engagement relatively to deoxyelephantopin, it was favoured based on the fact that an alkyne moiety appended to the rigid scaffold of deoxyelephantopin may hinder some of its interactions. MCF7 cells were pretreated with various concentrations of deoxyelephantopin for 4 h, harvested, lysed and the lysates were treated with the fluorogenic probe 24c-Cy3 (10 μM; Supplementary Fig. 10). […] Furthermore, cells were pretreated with 20 μM concentration of deoxyelephantopin or 24c and the proteomic profiles were compared (Fig. 6b, Supplementary Fig. 11). Multiple bands were detected that were equally competed by both DEP and 24c, thus again confirming that 24c can be used as an acceptable clickable analogue of deoxyelephantopin in pulldown assays. Having established the optimal labelling conditions by SDS–PAGE, we next carried out a mass spectrometry-based competitive profiling assay[42] coupled with the method of stable isotope labelling of amino acids in culture (SILAC)[43]. […]
visualization were performed as described above. Images were quantified with ImageJ and kinetics values were calculated using GraphPad Prism (V6.03). […]

Chain of recombinant IKKβ (O14920 whole entry): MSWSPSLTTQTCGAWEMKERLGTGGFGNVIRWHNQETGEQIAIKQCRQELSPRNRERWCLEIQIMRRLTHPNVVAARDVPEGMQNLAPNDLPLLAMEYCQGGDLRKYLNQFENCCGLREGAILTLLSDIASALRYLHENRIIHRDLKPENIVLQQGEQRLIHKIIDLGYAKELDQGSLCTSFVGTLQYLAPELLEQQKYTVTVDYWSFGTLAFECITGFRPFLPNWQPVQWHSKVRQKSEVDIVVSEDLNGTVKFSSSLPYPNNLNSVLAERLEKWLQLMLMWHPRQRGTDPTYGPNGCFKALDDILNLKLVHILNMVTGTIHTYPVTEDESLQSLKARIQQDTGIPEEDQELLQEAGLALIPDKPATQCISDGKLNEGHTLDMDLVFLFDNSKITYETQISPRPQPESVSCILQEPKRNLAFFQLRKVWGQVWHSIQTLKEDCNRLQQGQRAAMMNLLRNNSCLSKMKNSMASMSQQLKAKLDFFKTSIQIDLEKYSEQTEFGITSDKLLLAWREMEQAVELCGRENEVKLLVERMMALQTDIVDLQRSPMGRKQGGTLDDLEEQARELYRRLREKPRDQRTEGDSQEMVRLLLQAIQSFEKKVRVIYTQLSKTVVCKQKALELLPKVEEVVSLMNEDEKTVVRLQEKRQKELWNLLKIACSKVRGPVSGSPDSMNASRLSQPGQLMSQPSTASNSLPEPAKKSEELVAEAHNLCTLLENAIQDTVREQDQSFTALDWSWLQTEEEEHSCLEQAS
T1 sequence (Q9BTY7 whole entry): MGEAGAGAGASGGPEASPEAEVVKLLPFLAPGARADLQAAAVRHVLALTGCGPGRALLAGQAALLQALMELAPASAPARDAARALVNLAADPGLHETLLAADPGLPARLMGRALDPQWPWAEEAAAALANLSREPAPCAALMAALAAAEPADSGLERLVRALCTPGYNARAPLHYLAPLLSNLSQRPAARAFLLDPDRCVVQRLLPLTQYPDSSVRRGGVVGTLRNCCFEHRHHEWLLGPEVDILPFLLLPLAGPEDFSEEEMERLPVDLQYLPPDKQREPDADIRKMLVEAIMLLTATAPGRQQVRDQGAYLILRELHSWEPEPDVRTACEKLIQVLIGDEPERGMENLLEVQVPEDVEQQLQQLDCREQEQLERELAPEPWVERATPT

| SMILES | covalent interaction with recombinant IKKβ [1] | cytotoxic doses [2] | suppression of tumour growth and metastasis [3] | SILAC ratio 20 µM Deoxyelephantopin/DMSO with 24c [4] |
| --- | --- | --- | --- | --- |
| C#CCC[C@H](OC(=O)C(=C)C)[C@H]1C(=C)C(=O)O[C@@H]1c1ccccc1 [24c] | no evidence of covalent interaction |  |  |  |
| C=C(C)C(=O)O[C@H]1CC2=C[C@@H](C/C(C)=C/[C@H]3OC(=O)C(=C)[C@H]13)OC2=O [deoxyelephantopin] |  | 0.5 to 2 µg/mL | more effective than paclitaxel | 0.20 |
